According to patent US20100016232A1, “Treatment Of Inflammatory Diseases With Mammal Beta Defensins” (Novozymes A/S, priority 2008, published 2010):
Marks after values point to notes of the source that are not given here. Where no end group is shown, it is not given here.

Key:
[1] = system: TNF production from human peripheral blood mononuclear cells (PBMC); assay: TNF production from human PBMC, Cytometric Bead Array; format: cell-based
Procedure: (§1) Peripheral blood was drawn from healthy volunteers (with approval from the relevant ethical committee in Denmark). Heparinized blood was diluted 1/1 v/v with RPMI and were subjected to Ficoll density centrifugation within 2 h of drawing. Plasma was collected from the top from individual donors and was kept on ice until it was used at 2% in the culture medium (autologous culture medium). Isolated PBMC were resuspended in autologous culture medium and seeded in 96-well culture plates with 255.000 cells per well in a total of 200 μl. […] The concentrations used for stimulation were optimized on 3 different donors in initial experiments, for LPS two different concentrations were used to be sure to be on a cytokine level that is possible to modulate. In some experiments PBMC were treated with Dexamethason and Indomethacin alone and together with LPS or LTA as a control on downregulation of inflammatory cytokines. The supernatants were collected after incubation at 37° C. for 24 hours, and stored at −80° C. until cytokine measurement. Viability was measured by Alamar Blue (Biosource, DALL 1100) in all experiments and in some cases also by MTS (Promega) according to manufacturer's instruction and was in some experiments also judged by counting of the cells by a Nucleocounter.
(§2) Cytokine production in supernatants was measured by flow cytometry with a human inflammation cytometric bead array (CBA) according to manufacturer's instructions (BD) on a FACSarray flow cytometer. The following cytokines were measured: IL-8, IL-1β, IL-10, TNF, IL-12 p70, IL-6. In some experiments, cytokines were measured by ELISA kits from R&D systems (IL-10, TNF-α, IL-1β) according to the manufacturer' instruction.

[2] = system: TNF-alfa secretion from PBMC; assay: TNF-alfa secretion from PBMC, ELISA; format: cell-based, human
Procedure: as §1, §2
(§3) In Tables 6, 7 and 8, supernatants from another donor were analysed for cytokines by ELISA instead of by a cytometric bead array by flowcytometry and here the same were observed, although the sensitivity of the assay is lower and the detection limit much higher and therefore the effects were not as significant.

[3] = system: IL-10 secretion from PBMC; assay: IL-10 secretion from PBMC, ELISA; format: cell-based, human
Procedure: as §1, §2, §3

[4] = system: TNF production in supernatant from a human monocyte cell line (MUTZ-3); assay: TNF production, human monocyte cell line MUTZ-3; format: cell-based
Procedure: The human myeloid leukaemia-derived cell line MUTZ-3 (DSMZ, Braunschweig, Germany) was maintained in a-MEM (Sigma M4526), supplemented with 20% [volume/volume (v/v)] fetal bovine serum (Sigma F6178) and 40 ng/ml rhGM-CSF (R&D Systems 215-GM-050).
as §2

[5] = system: DSS-induced colitis in the mouse; assay: 10-day DSS-induced colitis, colon histological score (Example 6); format: in vivo
Procedure: Two sections (proximal and distal) of colon were taken from each animal and preserved in neutral buffered formalin for subsequent histological analysis (haematoxylin and eosin staining) according to the following scoring system:
Example 6 was carried out essentially as described in Example 5. The differences are indicated below.
Animals were divided into 9 experimental groups.
Two sections (proximal and distal) of colon were taken from each animal, processed for histological analysis (haematoxylin and eosin staining), and scored by a blind observer according to the scoring system described above.

IL-10, dendritic cells = assay: IL-10 from dendritic cells (MUTZ-3 derived) stimulated with LPS or LTA; format: cell-based, human; details: dendritic cells stimulated with hBD2 and LPS or hBD2 and LTA; results not shown
Procedure: To generate a dendritoid cell line, the human myeloid leukaemia cell lines MUTZ-3 (1×10^5 cells/ml) was differentiated for 7 days in the presence of rhGM-CSF (150 ng/ml) and rhIL-4 (50 ng/ml) into immature DCs. Medium was exchanged every 2-3 days.
as §2

[6] = LPS 0.6 ng/ml, test compound 1 μg/ml, Table 16
[7] = LPS 0.6 ng/ml, test compound 10 μg/ml, Table 16
[8] = LPS 0.6 ng/ml, test compound 40 μg/ml, Table 16
[9] = LPS 20 ng/ml, test compound 1 μg/ml, Table 16
[10] = LPS 20 ng/ml, test compound 10 μg/ml, Table 16
[11] = LPS 20 ng/ml, test compound 40 μg/ml, Table 16
[12] = Group F, 0.1 mg/kg twice daily i.v. + s.c.
[13] = Group G, 0.1 mg/kg i.v. every 2. day

What does the source list for “hBD2: human beta defensin 2, SEQ ID NO:2; produced recombinantly in E. coli (Example 1); hBD2 of Tables 16-18 was prepared by chemical synthesis (GIGDPVTCLKSGAICHPVFCPRRYKQIGTCGLPGTKCCKKP; ends and bridges not checked; cysteine pairing not given here; listed as Homo sapiens)”?
TNF ([1]; LPS 0.6 ng/ml, hBD2 1 μg/ml, Table 1): 944.8 pg/mL; TNF ([1]; LPS 0.6 ng/ml, hBD2 1 μg/ml, Table 11): 170 pg/mL; TNF ([1]; LPS 0.6 ng/ml, hBD2 10 μg/ml, Table 1): 1076.4 pg/mL; TNF ([1]; LPS 0.6 ng/ml, hBD2 10 μg/ml, Table 11): 200 pg/mL; TNF ([1]; LPS 0.6 ng/ml, hBD2 100 μg/ml, Table 1): 634.2 pg/mL; TNF ([1]; LPS 0.6 ng/ml, hBD2 100 μg/ml, Table 11): 0 pg/mL; TNF ([1]; LPS 0.6 ng/ml, hBD2 1000 μg/ml, Table 11): 3 pg/mL; TNF [1, 6]: 242 pg/mL; TNF % of control [1, 6]: 33%; TNF [1, 7]: 304 pg/mL; TNF % of control [1, 7]: 42%; TNF [1, 8]: 176 pg/mL; TNF % of control [1, 8]: 24%; TNF ([1]; LPS 20 ng/ml, hBD2 1 μg/ml, Table 1): 1526.9 pg/mL; TNF ([1]; LPS 20 ng/ml, hBD2 1 μg/ml, Table 11): 6240 pg/mL; TNF ([1]; LPS 20 ng/ml, hBD2 10 μg/ml, Table 1): 1306.6 pg/mL; TNF ([1]; LPS 20 ng/ml, hBD2 10 μg/ml, Table 11): 350 pg/mL; TNF ([1]; LPS 20 ng/ml, hBD2 100 μg/ml, Table 1): 1733.9 pg/mL; TNF ([1]; LPS 20 ng/ml, hBD2 100 μg/ml, Table 11): 38 pg/mL; TNF ([1]; LPS 20 ng/ml, hBD2 1000 μg/ml, Table 11): 0 pg/mL; TNF [1, 9]: 411 pg/mL; TNF % of control [1, 9]: 19%; TNF [1, 10]: 132 pg/mL; TNF % of control [1, 10]: 6%; TNF [1, 11]: 52 pg/mL; TNF % of control [1, 11]: 2%; TNF ([1]; LPS 20 ng/ml, treatment 1 μg/ml, Table 21): 633 pg/mL; TNF ([1]; LPS 20 ng/ml, treatment 10 μg/ml, Table 21): 359 pg/mL; TNF ([1]; LPS 20 ng/ml, treatment 100 μg/ml, Table 21): 342 pg/mL; TNF ([1]; LTA 1.25 μg/ml, hBD2 1 μg/ml, Table 1): 711.5 pg/mL; TNF ([1]; LTA 1.25 μg/ml, hBD2 1 μg/ml, Table 11): 3900 pg/mL; TNF ([1]; LTA 1.25 μg/ml, hBD2 10 μg/ml, Table 1): 494.7 pg/mL; TNF ([1]; LTA 1.25 μg/ml, hBD2 10 μg/ml, Table 11): 2330 pg/mL; TNF ([1]; LTA 1.25 μg/ml, hBD2 100 μg/ml, Table 1): 375.2 pg/mL; TNF ([1]; LTA 1.25 μg/ml, hBD2 100 μg/ml, Table 11): 1150 pg/mL; TNF ([1]; LTA 1.25 μg/ml, hBD2 1000 μg/ml, Table 11): 110 pg/mL; TNF ([1]; Medium, hBD2 1 μg/ml, Table 1): 4.2 pg/mL; TNF ([1]; Medium, hBD2 1 μg/ml, Table 9): 3.4 pg/mL; TNF ([1]; Medium, hBD2 1 μg/ml, Table 11): 0 pg/mL; TNF ([1]; Medium, hBD2 10 μg/ml, Table 1): 2.6 pg/mL; TNF ([1]; Medium, hBD2 10 μg/ml, Table 9): 3.7 pg/mL; TNF ([1]; Medium, hBD2 10 μg/ml, Table 11): 0 pg/mL; TNF ([1]; Medium, hBD2 100 μg/ml, Table 1): 2.9 pg/mL; TNF ([1]; Medium, hBD2 100 μg/ml, Table 9): 3.6 pg/mL; TNF ([1]; Medium, hBD2 100 μg/ml, Table 11): 0 pg/mL; TNF ([1]; Medium, hBD2 1000 μg/ml, Table 11): 0 pg/mL; TNF ([1]; Medium, test compound 1 μg/ml, Table 16): 0 pg/mL; TNF ([1]; Medium, test compound 10 μg/ml, Table 16): 0 pg/mL; TNF ([1]; Medium, test compound 40 μg/ml, Table 16): 0 pg/mL; TNF ([1]; Medium, treatment 1 μg/ml, Table 21): 3 pg/mL; TNF ([1]; Medium, treatment 10 μg/ml, Table 21): 2 pg/mL; TNF ([1]; Medium, treatment 100 μg/ml, Table 21): 2 pg/mL; TNF ([1]; PBMC stimulated with Pam3CSK4 (TLR2-TLR1 ligand), results not shown): able to downregulate TNF; TNF ([1]; PGN 40 μg/ml, hBD2 1 μg/ml, Table 9): 809.9 pg/mL; TNF ([1]; PGN 40 μg/ml, hBD2 10 μg/ml, Table 9): 362.0 pg/mL; TNF ([1]; PGN 40 μg/ml, hBD2 100 μg/ml, Table 9): 274.9 pg/mL; TNF-α ([2]; LPS 0.6 ng/ml, hBD2 1 μg/ml): 0.70 ng/mL; TNF-α ([2]; LPS 0.6 ng/ml, hBD2 10 μg/ml): 0.59 ng/mL; TNF-α ([2]; LPS 0.6 ng/ml, hBD2 100 μg/ml): 0.41 ng/mL; TNF-α ([2]; LPS 20 ng/ml, hBD2 1 μg/ml): 1.18 ng/mL; TNF-α ([2]; LPS 20 ng/ml, hBD2 10 μg/ml): 0.49 ng/mL; TNF-α ([2]; LPS 20 ng/ml, hBD2 100 μg/ml): 0.53 ng/mL; TNF-α ([2]; LTA 1.25 μg/ml, hBD2 1 μg/ml): 0.65 ng/mL; TNF-α ([2]; LTA 1.25 μg/ml, hBD2 10 μg/ml): 0.27 ng/mL; TNF-α ([2]; LTA 1.25 μg/ml, hBD2 100 μg/ml): 0.21 ng/mL; IL-10 ([3]; LPS 0.6 ng/ml, hBD2 10 μg/ml): 0.04 ng/mL; IL-10 ([3]; LPS 0.6 ng/ml, hBD2 100 μg/ml): 0.14 ng/mL; IL-10 ([3]; LPS 20 ng/ml, hBD2 10 μg/ml): 0.34 ng/mL; IL-10 ([3]; LPS 20 ng/ml, hBD2 100 μg/ml): 0.46 ng/mL; TNF ([4]; LPS 1.5 μg/ml, hBD2 1 μg/ml): 6.61 pg/mL; TNF ([4]; LPS 1.5 μg/ml, hBD2 10 μg/ml): 3.93 pg/mL; TNF ([4]; LPS 1.5 μg/ml, hBD2 100 μg/ml): 3.93 pg/mL; TNF ([4]; LTA 1.5 μg/ml, hBD2 1 μg/ml): 1.75 pg/mL; TNF ([4]; LTA 1.5 μg/ml, hBD2 10 μg/ml): 3.76 pg/mL; TNF ([4]; LTA 1.5 μg/ml, hBD2 100 μg/ml): 2.64 pg/mL; TNF ([4]; Medium, hBD2 1 μg/ml): 2.21 pg/mL; TNF ([4]; Medium, hBD2 10 μg/ml): 2.60 pg/mL; TNF ([4]; Medium, hBD2 100 μg/ml): 0.00 pg/mL; Histology Score Distal Colon, mean ([5]; Group B, 1 mg/kg i.v.): 3.56; Histology Score Proximal Colon, mean ([5]; Group B, 1 mg/kg i.v.): 1.78; Histology Score Distal Colon, mean ([5]; Group C, 0.1 mg/kg i.v.): 3.14*; Histology Score Proximal Colon, mean ([5]; Group C, 0.1 mg/kg i.v.): 1.71; Histology Score Distal Colon, mean ([5]; Group D, 0.01 mg/kg i.v.): 3.10**; Histology Score Proximal Colon, mean ([5]; Group D, 0.01 mg/kg i.v.): 1.70; Histology Score Distal Colon, mean ([5]; Group E, 0.001 mg/kg i.v.): 3.56; Histology Score Proximal Colon, mean ([5]; Group E, 0.001 mg/kg i.v.): 1.44; Histology Score Distal Colon, mean [5, 12]: 2.90***; Histology Score Proximal Colon, mean [5, 12]: 1.30*; Histology Score Distal Colon, mean [5, 13]: 3.56; Histology Score Proximal Colon, mean [5, 13]: 1.56; IL-10 (IL-10, dendritic cells): induced
